The test system of one assay is Aβ oligomers. The settings on record: positive control, previously shown; cited from earlier work.
In assay [1] the test system is TgCRND8 mice. The assay can be described thus: Pilot in vivo studies. Also on record: species or system mouse. Particulars: data not shown. An excerpt:
The TgCRND8 mice and non-transgenic littermates were assigned to sex- and age-matched cohorts that were then used to test the effectiveness of the cyclohexanehexol stereoisomers as a therapeutic (with treatment delayed until five months of age and continued for one month until six months of age). […] The endpoints were cognitive function, brain Aβ levels, and neuropathology. […] Over the course of these experiments, observers were unaware of genotype or treatment group.

A further assay addresses T1, Aβ (Homo sapiens, UniProt P05067).
T1 construct: neurotoxic oligomeric/protofibrillar aggregates of amyloid β-peptide (Aβ)
The settings on record: reference [16]; cited from earlier work.

Assay [2] relates to TgCRND8 mice. Briefly: Morris Water Maze spatial reference memory test in TgCRND8 mice. The assay is classed as in vivo, mouse. The settings on record: TgCRND8 mice, oral treatment for 28 days from 5 months of age, tested at 6 months.

Structures are written as SMILES.

T1 sequence (P05067 672-713 limits assumed): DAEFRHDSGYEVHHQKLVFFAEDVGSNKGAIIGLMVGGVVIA

Turning to `Oc1cccc(Nc2ccc(Nc3cccc(O)c3)nn2)c1` [RS0406], the “production of oligomers when added pre-cond” value in the assay on Aβ oligomers is reported as “reduces the production of oligomers”. Turning to `O[C@H]1[C@H](O)[C@@H](O)[C@H](O)[C@@H](O)[C@H]1O` [myo-cyclohexanehexol, 1,2,3,5/4,6-(myo-)cyclohexanehexol], in the assay with TgCRND8 mice [1], the “benefit in pilot in vivo studies” value is listed as “no significant benefit”. Further, the “effectiveness in prior in vitro studies” value on Aβ is “only weakly effective”. Take `OC1C(O)C(O)C(O)C(O)C1O` (stereo not drawn) [Epi-cyclohexanehexol, 1,2,3,4,5/6-(epi-) cyclohexanehexol, reference compound]: the “Spatial learning performance (Morris Water Maze) compared to untreated TgCRND8 littermates” value with TgCRND8 mice [2] is reported as “not significantly different from that of untreated TgCRND8 littermates”.

The values are drawn from patent US20090062403A1, “Compositions and Methods for Treatment of Disorders of Protein Aggregation” (priority 2004, published 2009).
